Among the data in patent US7569578B2, “Heterocyclic anti-migraine agents” (Bristol-Meyers Squibb Company, priority 2003, dated 2009) are IC50 values, retold here.

pIC50: −log10 of the molar value.

This assay has as its target T1, Human CGRP1 Receptor (Homo sapiens, UniProt O60894+Q16602).
T1 construct: endogenous in cells; host or cells: SK-N-MC cells (membrane homogenate)
The assay is described as follows: CGRP Binding Assay ([125I]-CGRP radioligand displacement, SK-N-MC membrane homogenate). The following applies: [125I]-CGRP displacement, SK-N-MC homogenate, room temperature 2 h; read-out: Human CGRP1 Receptor IC50.

T1 sequence (Q16602 23-461): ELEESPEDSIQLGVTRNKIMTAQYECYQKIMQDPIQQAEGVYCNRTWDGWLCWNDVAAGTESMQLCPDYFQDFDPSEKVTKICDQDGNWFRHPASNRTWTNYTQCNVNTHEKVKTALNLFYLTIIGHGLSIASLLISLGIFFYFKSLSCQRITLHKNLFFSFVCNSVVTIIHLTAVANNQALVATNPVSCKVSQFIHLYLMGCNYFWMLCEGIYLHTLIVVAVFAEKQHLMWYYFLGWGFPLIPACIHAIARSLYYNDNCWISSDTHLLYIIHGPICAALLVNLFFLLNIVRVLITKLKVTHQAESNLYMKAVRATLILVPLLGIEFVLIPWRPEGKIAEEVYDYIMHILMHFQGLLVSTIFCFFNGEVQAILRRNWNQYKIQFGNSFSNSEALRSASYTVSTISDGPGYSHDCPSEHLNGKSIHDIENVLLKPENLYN
T1 sequence (O60894 27-148): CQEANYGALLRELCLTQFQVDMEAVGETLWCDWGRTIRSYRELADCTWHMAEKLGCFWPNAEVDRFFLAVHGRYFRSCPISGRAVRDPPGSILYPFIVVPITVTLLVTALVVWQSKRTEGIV

Broadly, the pIC50 is −log10 of the IC50, conventionally taken in molar units. Turning to `CC1=CC(CC(CC(=O)N2CCC(N3Cc4cccc(F)c4NC3=O)CC2)c2nccn2Cc2ccc(C(C)(C)C)cc2)=CC2C=NNC12` (stereo not drawn) [Example 96, 3-(1-(3-(1-(4-tert-Butylbenzyl)-1H-imidazol-2-yl)-4-(7-methyl-3a,7a-dihydro-1H-indazol-5-yl)butanoyl)piperidin-4-yl)-8-fluoro-3,4-dihydroquinazolin-2(1H)-one], the pIC50 is greater than 8.00.
In the case of `CC1=CC(CC(CC(=O)N2CCC(N3Cc4ccccc4NC3=O)CC2)c2nccn2Cc2ccncc2)=CC2C=NNC12` (stereo not drawn) [Example 97, 3-(1-(4-(7-Methyl-3a,7a-dihydro-1H-indazol-5-yl)-3-(1-(pyridin-4-ylmethyl)-1H-imidazol-2-yl)butanoyl)piperidin-4-yl)-3,4-dihydroquinazolin-2(1H)-one], the pIC50 was greater than 8.00.
Take `CC1=CC(CC(CC(=O)N2CCC(N3Cc4ccccc4NC3=O)CC2)c2nc3ccccc3[nH]2)=CC2C=NNC12` (stereo not drawn) [Example 98, 3-(1-(3-(1H-Benzo[d]imidazol-2-yl)-4-(7-methyl-3a,7a-dihydro-1H-indazol-5-yl)butanoyl)piperidin-4-yl)-3,4-dihydroquinazolin-2(1H)-one]: the pIC50 is greater than 8.00.
Consider `CCn1c(C(CC(=O)N2CCC(N3Cc4ccccc4NC3=O)CC2)CC2=CC3C=NNC3C(C)=C2)nc2ccccc21` (stereo not drawn) [Example 99, 3-(1-(3-(1-Ethyl-1H-benzo [d]imidazol-2-yl)-4-(7-methyl-3a,7a-dihydro-1H-indazol-5-yl)butanoyl)piperidin-4-yl)-3,4-dihydroquinazolin-2(1H)-one], for which the pIC50 is greater than 8.00.
Regarding `Cc1cc(C[C@@H](OC(=O)N2CCC(c3cc4ccccc4[nH]c3=O)CC2)c2nc(-c3ccc(F)cc3)no2)cc2cn[nH]c12` [Example 100, (R)-1-(3-(4-Fluorophenyl)-1,2,4-oxadiazol-5-yl)-2-(7-methyl-1H-indazol-5-yl)ethyl 4-(2-oxo-1,2-dihydroquinolin-3-yl)piperidine-1-carboxylate], the pIC50 was 6.00 to 7.00.
For the compound `Cc1cc(C[C@@H](OC(=O)N2CCC(N3Cc4ccccc4NC3=O)CC2)c2nc(-c3ccncc3)no2)cc2cn[nH]c12` [Example 101, (R)-2-(7-Methyl-1H-indazol-5-yl)-1-(3-(pyridin-4-yl)-1,2,4-oxadiazol-5-yl)ethyl 4-(2-oxo-1,2-dihydroquinazolin-3(4H)-yl)piperidine-1-carboxylate], the pIC50 was 7.00 to 8.00.
`Cc1cc(C[C@@H](OC(=O)N2CCC(c3cc4ccccc4[nH]c3=O)CC2)c2nc(-c3cccnc3)no2)cc2cn[nH]c12` [Example 102, (R)-2-(7-Methyl-1H-indazol-5-yl)-1-(3-(pyridin-3-yl)-1,2,4-oxadiazol-5-yl)ethyl 4-(2-oxo-1,2-dihydroquinolin-3-yl)piperidine-1-carboxylate]: the pIC50 is 7.00 to 8.00.
Turning to `CCOC(=O)c1noc([C@@H](Cc2cc(C)c3[nH]ncc3c2)OC(=O)N2CCC(c3cc4ccccc4[nH]c3=O)CC2)n1` [Example 103, (R)-1-(3-(Ethoxycarbonyl)-1,2,4-oxadiazol-5-yl)-2-(7-methyl-1H-indazol-5-yl)ethyl 4-(2-oxo-1,2-dihydroquinolin-3-yl)piperidine-1-carboxylate], the pIC50 was 7.00 to 8.00.
Turning to “(±)-4-(2-Oxo-1,4-dihydro-2H-quinazolin-3-yl)-piperidine-1-carboxylic acid [2-(7-ethyl-3-methyl-1H-indazol-5-yl)-1-pyridin-4-yl methyl-1H-tetrazol-5-yl)-ethyl]-amide [Example 19]”, the pIC50 is greater than 8.00.
